System: homocysteine ematic level
Assay: Randomised clinical study in patients with hyperhomocysteinemia; plasma homocysteine determined by immunoenzymatic test (EIA) at enrolment and after 30 days of treatment
Assay type: in vivo
Excerpt: Assessments about the pharmacological effectiveness of the composition according to the present invention have been carried out according to the following study protocol.
The experimentation has examined a total number of 60 patients assigned to one of the two treatment groups (30 patients to group A and 30 patients to group B).
• Patients of both sexes • Age older than 18 • Homocysteinemia level >15 µmol/l
• Patients suffering from diseases interfering with the homocysteine dosage • Patients in therapy with drugs interfering with the homocysteine metabolism (isoniazid, antiepileptic, methotrexate) • Subjects with ascertained individual hypersensitivity towards the active principles and/of the excipients of the product • Women during pregnancy or puerperium • Patients suffering from diabetes mellitus […]
The obtained data have been assessed statistically withe Student's t test and the significance is expressed as follows: P<0.05*; P<0.01**; P<0.001***

With arginine glutamate the “reduction in the homocysteine plasmatic levels” value (general statement of the applicant's experimental data, dose and duration not stated at the place) was 10-15% and the “reduction in the homocysteine plasmatic values” (patients with homocysteinemia >15 µmol/l, 10-ml small bottle which can be drunk, twice a day for 30 days, 30 patients per group, Student's t test (composition 9 p≤0.001; arginine glutamate only p≤0.01)) was 12%.

From patent EP1518554A1, “Pharmaceutical composition for the treatment of hyperhomocysteinemia” (Medosan Industrie Biochimiche Riunite S.r.l., priority 2003, dated 2005)
